Reference: patent US20150050244A1, “Entomopathogenic Fungi and Uses Thereof” (priority 2008, published 2015)
“And” between values parts separate entries of the source, which are not always exact repeats. Equal entries are not always repeated.

Tested on: green pea aphid (Myzus persicae)
Assay: Aphid mortality on leaf discs, Potters tower, K4B3 extract versus beauvericin
Type: in vivo
Procedure: Table 7 below presents mortality observed amongst green pea aphid (Myzus persicae) present on Asian brassica leaf discs. Asian brassica leaf discs were placed on 1% water agar in Petri dishes. […] The sprayed Petri dishes were placed dorsal side down on paper towels to allow surfaces to dry. Five replicates of each treatment were done. Mortality was assessed 48 hours after application.

[1] = per replicate, 2 mL sprayed, 48 hours, beauvericin solution 50 μg/mL with 2.5 mL millennium oil/L
[2] = total of replicates, 2 mL sprayed, 48 hours

## beauvericin
Beauvericin alone, Table 7
  mortality compared with the water control: not significantly different
Beauvericin even at 50,000 μg/L
  aphid mortality (in words): very low
[1]
  Alive Adult: 0 (3×) and 8 and 10
  Alive Juv.: 0 (3×) and 22 and 28
  Dead Adult: 0 (4×) and 1
  Dead Juv.: 0 (3×) and 1 and 3
[2]
  Total Alive Adult: 18
  Total Alive Juv.: 50
  Total Dead Adult: 1
  Total Dead Juv.: 4
